Measured values as given in patent EP0573218B1, “4-Carboxyimidazoles as angiotensin II antagonists and their thrapeutic use” (SANKYO COMPANY LIMITED, priority 1992, dated 1993).

system: All receptor; assay: Inhibition of pressor response to intravenous angiotensin II in anaesthetised rats (AII receptor blocking activity); assay type: in vivo; conditions: i.v.; dose inhibiting by fifty percent the pressor response to 50 ng/kg i.v. angiotensin II; angiotensin II injected two minutes after test compound; male Wister-Imamichi rats
Method: Evaluation of All receptor blocking activity by Inhibition of pressor response to angiotensin II
The biological activity of each compound was assessed by determining the dose required to inhibit the pressor response to intravenous angiotensin II by fifty percent (ID50) in rats. Male Wister-Imamichi rats, each weighing 300 to 400 g, were anaesthesized by intraperitoneal injection of 100 mg/Kg of sodium thiobutabarbital [Inactin (trade name)] and two cannulae were inserted: one into the femoral artery for measuring blood pressure and the other into the femoral vein for injecting drugs. Fifty ng/kg of angiotension II were intravenously administered at intervals of about 10 minutes, and the elevation of blood pressure (normally about 50 mmHg) was observed. After constant pressor responses to angiotensin II were obtained, a test compound was intravenously administered. Two minutes later, angiotension II was again injected, and the inhibitory effect of the test compound was estimated. The percent inhibitions of the pressor response to angiotensin II by progressive increase of the test compound was used to calculate the value of ID50. Angiotensin II was used in this test dissolved in 0.5 % bovine serum albumin (BSA) and the test compounds were dissolved in 100% dimethyl sulphoxide (DMSO).

| SMILES | ID50 |
| --- | --- |
| COCc1nc(C(C)(C)O)c(C(=O)O)n1Cc1ccc(-c2ccccc2-c2nnn[nH]2)cc1 [Example 2, 4-(1-Hydroxy-1-methylethyl)-2-methoxymethyl-1-{4-[2-(tetrazol-5-yl)phenyl]phenyl}methylimidazole-5-carboxylic acid] | 0.0066 mg/kg |
| CCOCc1nc(C(C)(C)O)c(C(=O)O)n1Cc1ccc(-c2ccccc2-c2nnn[nH]2)cc1 [Example 6, 2-Ethoxymethyl-4-(1-hydroxy-1-methylethyl)-1-{4-[2-(tetrazol-5-yl)phenyl]phenyl}methylimidazole-5-carboxylic acid] | 0.0059 mg/kg |
| CCCOCc1nc(C(C)(C)O)c(C(=O)O)n1Cc1ccc(-c2ccccc2-c2nnn[nH]2)cc1 [Example 10, 4-(1-Hydroxy-1-methylethyl)-2-propoxymethyl-1-{4-[2-(tetrazol-5-yl)phenyl]phenyl}methylimidazole-5-carboxylic acid] | 0.016 mg/kg |
| COC(C)c1nc(C(C)(C)O)c(C(=O)O)n1Cc1ccc(-c2ccccc2-c2nnn[nH]2)cc1 (stereo not shown) [Example 14, 4-(1-Hydroxy-1-methylethyl)-2-(1-methoxyethyl)-1-{4-[2-(tetrazol-5-yl)phenyl]phenyl}methyl-imidazole-5-carboxylic acid] | 0.074 mg/kg |
| CSCc1nc(C(C)(C)O)c(C(=O)O)n1Cc1ccc(-c2ccccc2-c2nnn[nH]2)cc1 [Example 22, 4-(1-Hydroxy-1-methylethyl)-2-methylthiomethyl-1-{4-[2-(tetrazol-5-yl)phenyl]phenyl}methyl-imidazole-5-carboxylic acid] | 0.025 mg/kg |
| CSc1nc(C(C)(C)O)c(C(=O)O)n1Cc1ccc(-c2ccccc2-c2nnn[nH]2)cc1 [Example 25, 4-(1-Hydroxy-1-methylethyl)-2-methylthio-1-{4-[2-(tetrazol-5-yl)phenyl]phenyl}methyl-imidazole-5-carboxylic acid] | 0.026 mg/kg |
| CCSc1nc(C(C)(C)O)c(C(=O)O)n1Cc1ccc(-c2ccccc2-c2nnn[nH]2)cc1 [Example 27, 2-Ethylthio-4-(1-hydroxy-1-methylethyl)-1-{4-[2-(tetrazol-5-yl)phenyl]phenyl}methyl-imidazole-5-carboxylic acid] | 0.019 mg/kg |
